The record followed here is the supplement of paper PMC10307832.

Common to all, as to test: relative viability (nuclei count vs DMSO), 5 days (fraction); higher = more cells survive
Compound in the test “Decitabine + Navitoclax”: Nc1ncn([C@H]2C[C@H](O)[C@@H](CO)O2)c(=O)n1 [Decitabine] + CC1(C)CCC(c2ccc(Cl)cc2)=C(CN2CCN(c3ccc(C(=O)NS(=O)(=O)c4ccc(N[C@H](CCN5CCOCC5)CSc5ccccc5)c(S(=O)(=O)C(F)(F)F)c4)cc3)CC2)C1 [Navitoclax] (partner 0.5 µM)
The method in brief:
(§1)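 For relative viability, nuclei counts in treated wells were divided by those in vehicle wells. Lung cancer cell lines had been pin-tool dosed in 1536-well plates the day after seeding and cultured for 5 days, then fixed and stained in one step (final 0.05% Triton X-100, 1% formaldehyde, 1 ug/ml Hoechst) and imaged at 4×. Doses were one drug alone or a fixed anchor-drug dose plus five library-drug doses (not always all listed) in √10 steps, and values are duplicate-plate medians.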

Compound in the test “Cediranib + Olaparib”: COc1cc2c(Oc3ccc4[nH]c(C)cc4c3F)ncnc2cc1OCCCN1CCCC1 [Cediranib] + O=C(c1cc(Cc2n[nH]c(=O)c3ccccc23)ccc1F)N1CCN(C(=O)C2CC2)CC1 [Olaparib] (partner 8 µM)
The method in brief:
as §1

Compound in the test “Cediranib + Pemetrexed”: COc1cc2c(Oc3ccc4[nH]c(C)cc4c3F)ncnc2cc1OCCCN1CCCC1 [Cediranib] + Nc1nc2[nH]cc(CCc3ccc(C(=O)N[C@@H](CCC(=O)O)C(=O)O)cc3)c2c(=O)[nH]1 [Pemetrexed] (partner 0.2 µM)
The method in brief:
as §1

Compound in the test “Decitabine + Dasatinib”: Nc1ncn([C@H]2C[C@H](O)[C@@H](CO)O2)c(=O)n1 [Decitabine] + Cc1nc(Nc2ncc(C(=O)Nc3c(C)cccc3Cl)s2)cc(N2CCN(CCO)CC2)n1 [Dasatinib] (partner 0.075 µM)
The essentials:
as §1

Regarding NCI-H1975, the relative viability with Decitabine + Navitoclax (first compound 0.04 µM) turned out to be 0.431; with Decitabine + Navitoclax (first compound 0.1265 µM), 0.317; in the test with Decitabine + Navitoclax (first compound 0.4 µM), 0.291; with Decitabine + Navitoclax (first compound 1.265 µM) it was 0.256; in the test with Decitabine + Navitoclax (first compound 4 µM), 0.256; in the test with Cediranib + Olaparib (first compound 0.04 µM) it was 0.841. Further, the relative viability in the test with Cediranib + Olaparib (first compound 0.1265 µM) is 0.752; with Cediranib + Olaparib (first compound 0.4 µM), 0.768; in the test with Cediranib + Olaparib (first compound 1.265 µM) it was 0.773; with Cediranib + Olaparib (first compound 4 µM), 0.773; with Cediranib + Pemetrexed (first compound 0.04 µM) it was 0.269; in the test with Cediranib + Pemetrexed (first compound 0.1265 µM), 0.314. Further, the relative viability with Cediranib + Pemetrexed (first compound 0.4 µM) is 0.277; in the test with Cediranib + Pemetrexed (first compound 1.265 µM), 0.301; in the test with Cediranib + Pemetrexed (first compound 4 µM) it was 0.284; in the test with Decitabine + Dasatinib (first compound 0.04 µM), 0.325; in the test with Decitabine + Dasatinib (first compound 0.1265 µM) it was 0.258; in the test with Decitabine + Dasatinib (first compound 0.4 µM) it was 0.197. Besides, the results for the relative viability in the test with Decitabine + Dasatinib (first compound 1.265 µM) and with Decitabine + Dasatinib (first compound 4 µM) were 0.194 and 0.15, respectively.
As for COR-L 105, the relative viability with Decitabine + Navitoclax (first compound 0.04 µM) is 0.539; with Decitabine + Navitoclax (first compound 0.1265 µM), 0.534; with Decitabine + Navitoclax (first compound 0.4 µM), 0.437; in the test with Decitabine + Navitoclax (first compound 1.265 µM), 0.318; in the test with Decitabine + Navitoclax (first compound 4 µM), 0.316; in the test with Cediranib + Olaparib (first compound 0.04 µM) it was 0.737. The relative viability was found to be 0.657 in the test with Cediranib + Olaparib (first compound 0.1265 µM); 0.715 in the test with Cediranib + Olaparib (first compound 0.4 µM); 0.707 with Cediranib + Olaparib (first compound 1.265 µM); 0.687 in the test with Cediranib + Olaparib (first compound 4 µM); 1.11 with Cediranib + Pemetrexed (first compound 0.04 µM); 1.08 in the test with Cediranib + Pemetrexed (first compound 0.1265 µM). For the same cell line, the relative viability with Cediranib + Pemetrexed (first compound 0.4 µM) was found to be 1.06; with Cediranib + Pemetrexed (first compound 1.265 µM) it was 1.08; with Cediranib + Pemetrexed (first compound 4 µM) it was 1.15; with Decitabine + Dasatinib (first compound 0.04 µM) it was 0.254; with Decitabine + Dasatinib (first compound 0.1265 µM), 0.353; with Decitabine + Dasatinib (first compound 0.4 µM), 0.262. In addition, the relative viability was found to be 0.282 with Decitabine + Dasatinib (first compound 1.265 µM) and 0.305 in the test with Decitabine + Dasatinib (first compound 4 µM).
In the case of LK-2, the relative viability in the test with Decitabine + Navitoclax (first compound 0.04 µM) is 0.739; with Decitabine + Navitoclax (first compound 0.1265 µM), 0.881; with Decitabine + Navitoclax (first compound 0.4 µM), 0.664; with Decitabine + Navitoclax (first compound 1.265 µM) it was 0.358; in the test with Decitabine + Navitoclax (first compound 4 µM) it was 0.332; with Cediranib + Olaparib (first compound 0.04 µM), 0.67. In addition, the relative viability stood at 0.334 in the test with Cediranib + Olaparib (first compound 0.1265 µM); 0.681 with Cediranib + Olaparib (first compound 0.4 µM); 0.802 in the test with Cediranib + Olaparib (first compound 1.265 µM); 0.733 with Cediranib + Olaparib (first compound 4 µM); 0.324 with Cediranib + Pemetrexed (first compound 0.04 µM); 0.202 with Cediranib + Pemetrexed (first compound 0.1265 µM). Moreover, the relative viability with Cediranib + Pemetrexed (first compound 0.4 µM) was 0.247; in the test with Cediranib + Pemetrexed (first compound 1.265 µM), 0.177; with Cediranib + Pemetrexed (first compound 4 µM), 0.209; with Decitabine + Dasatinib (first compound 0.04 µM), 0.406; with Decitabine + Dasatinib (first compound 0.1265 µM) it was 0.445; with Decitabine + Dasatinib (first compound 0.4 µM), 0.227. The relative viability in the test with Decitabine + Dasatinib (first compound 1.265 µM) is 0.266; in the test with Decitabine + Dasatinib (first compound 4 µM), 0.301.
As for EKVX, the relative viability was 0.75 in the test with Decitabine + Navitoclax (first compound 0.04 µM); 0.809 with Decitabine + Navitoclax (first compound 0.1265 µM); 0.561 with Decitabine + Navitoclax (first compound 0.4 µM); 0.365 with Decitabine + Navitoclax (first compound 1.265 µM); 0.347 with Decitabine + Navitoclax (first compound 4 µM); 0.783 with Cediranib + Olaparib (first compound 0.04 µM). The relative viability with Cediranib + Olaparib (first compound 0.1265 µM) came to 0.949; with Cediranib + Olaparib (first compound 0.4 µM), 0.803; with Cediranib + Olaparib (first compound 4 µM), 0.851; in the test with Cediranib + Pemetrexed (first compound 0.04 µM), 0.512; with Cediranib + Pemetrexed (first compound 0.1265 µM), 0.412; with Cediranib + Pemetrexed (first compound 0.4 µM), 0.384. In addition, the relative viability with Cediranib + Pemetrexed (first compound 4 µM) was 0.441; with Decitabine + Dasatinib (first compound 0.04 µM) it was 0.479; with Decitabine + Dasatinib (first compound 0.1265 µM), 0.494; with Decitabine + Dasatinib (first compound 0.4 µM), 0.368; in the test with Decitabine + Dasatinib (first compound 1.265 µM) it was 0.36; with Decitabine + Dasatinib (first compound 4 µM) it was 0.329.
Turning to NCI-H2009, the relative viability came out at 0.945 with Decitabine + Navitoclax (first compound 0.04 µM); 0.722 with Decitabine + Navitoclax (first compound 0.1265 µM); 0.568 in the test with Decitabine + Navitoclax (first compound 0.4 µM); 0.416 with Decitabine + Navitoclax (first compound 1.265 µM); 0.263 with Decitabine + Navitoclax (first compound 4 µM); 0.637 in the test with Cediranib + Olaparib (first compound 0.04 µM). The relative viability with Cediranib + Olaparib (first compound 0.1265 µM) is 0.698; in the test with Cediranib + Olaparib (first compound 0.4 µM), 0.676; with Cediranib + Olaparib (first compound 1.265 µM), 0.694; with Cediranib + Olaparib (first compound 4 µM), 0.669; in the test with Cediranib + Pemetrexed (first compound 0.04 µM) it was 1.08; with Cediranib + Pemetrexed (first compound 0.1265 µM), 0.914. Moreover, the relative viability in the test with Cediranib + Pemetrexed (first compound 0.4 µM) is 0.957; in the test with Cediranib + Pemetrexed (first compound 1.265 µM), 1.04; with Cediranib + Pemetrexed (first compound 4 µM), 0.999; with Decitabine + Dasatinib (first compound 0.04 µM), 0.264; with Decitabine + Dasatinib (first compound 0.1265 µM), 0.273; in the test with Decitabine + Dasatinib (first compound 0.4 µM), 0.252. Besides, the values for the relative viability with Decitabine + Dasatinib (first compound 1.265 µM) and in the test with Decitabine + Dasatinib (first compound 4 µM) were 0.204 and 0.185, respectively.
In the case of NCI-H838, the relative viability in the test with Decitabine + Navitoclax (first compound 0.04 µM) stood at 0.734; with Decitabine + Navitoclax (first compound 0.1265 µM) it was 0.512; in the test with Decitabine + Navitoclax (first compound 0.4 µM), 0.321; with Decitabine + Navitoclax (first compound 1.265 µM), 0.366; with Decitabine + Navitoclax (first compound 4 µM), 0.309; in the test with Cediranib + Olaparib (first compound 0.04 µM), 0.786. Also, the relative viability in the test with Cediranib + Olaparib (first compound 0.1265 µM) came to 0.764; in the test with Cediranib + Olaparib (first compound 0.4 µM), 0.734; with Cediranib + Olaparib (first compound 1.265 µM), 0.722; with Cediranib + Olaparib (first compound 4 µM), 0.756; in the test with Cediranib + Pemetrexed (first compound 0.04 µM) it was 0.252; in the test with Cediranib + Pemetrexed (first compound 0.1265 µM), 0.241. In addition, the relative viability was determined as 0.229 in the test with Cediranib + Pemetrexed (first compound 0.4 µM); 0.257 with Cediranib + Pemetrexed (first compound 1.265 µM); 0.231 with Cediranib + Pemetrexed (first compound 4 µM); 0.326 with Decitabine + Dasatinib (first compound 0.04 µM); 0.325 in the test with Decitabine + Dasatinib (first compound 0.1265 µM); 0.241 with Decitabine + Dasatinib (first compound 0.4 µM). Besides, the relative viability with Decitabine + Dasatinib (first compound 1.265 µM) was 0.273; with Decitabine + Dasatinib (first compound 4 µM) it was 0.242.
For NCI-H2085, the relative viability in the test with Decitabine + Navitoclax (first compound 0.04 µM) came to 0.882; with Decitabine + Navitoclax (first compound 0.1265 µM), 0.736; with Decitabine + Navitoclax (first compound 0.4 µM) it was 0.67; in the test with Decitabine + Navitoclax (first compound 1.265 µM), 0.497; with Decitabine + Navitoclax (first compound 4 µM), 0.467; with Cediranib + Olaparib (first compound 0.04 µM), 0.737. In addition, the relative viability with Cediranib + Olaparib (first compound 0.1265 µM) was 0.729; with Cediranib + Olaparib (first compound 0.4 µM), 0.745; in the test with Cediranib + Olaparib (first compound 1.265 µM), 0.8; with Cediranib + Olaparib (first compound 4 µM), 0.746; with Cediranib + Pemetrexed (first compound 0.04 µM), 0.892; with Cediranib + Pemetrexed (first compound 0.1265 µM) it was 1.06. Moreover, the relative viability in the test with Cediranib + Pemetrexed (first compound 0.4 µM) worked out at 0.864; with Cediranib + Pemetrexed (first compound 1.265 µM) it was 0.812; with Cediranib + Pemetrexed (first compound 4 µM) it was 0.9; with Decitabine + Dasatinib (first compound 0.04 µM), 0.25; with Decitabine + Dasatinib (first compound 0.1265 µM), 0.256; with Decitabine + Dasatinib (first compound 0.4 µM) it was 0.285. Further, the results for the relative viability with Decitabine + Dasatinib (first compound 1.265 µM) and with Decitabine + Dasatinib (first compound 4 µM) were 0.279 and 0.204, respectively.
